Source: US20250042924A1, “WATER-SOLUBLE PHYTIN” (OTSUKA PHARMACEUTICAL CO., LTD., priority 2021, published 2025)

Tests used:
[1] = tested on: rat small intestine powder (enzyme solution); experiment: Test Example 2 purine nucleotide metabolism inhibitory activity (inosine monophosphate substrate, HPLC); assay type: biochemical; conditions: 37° C., 30 minutes
Method: Ca(OH)2 (Inoue Calcium Corporation) as a calcium source, Mg(OH)2 (Tomita Pharmaceutical Co., Ltd.) as a magnesium source, KOH (NIPPON SODA CO., LTD.) as a potassium source, NaOH (Tosoh Corporation) as a sodium source were placed in a 50 mL PP tube (IWAKI) at molar ratios of the minerals shown in Table 2. Then a commercially available phytic acid solution (product name: phytic acid (IP6), TSUNO Food Industrial co., ltd.) 0.426 mL (containing 0.296 g of phytic acid) was placed therein. Distilled water (Otsuka Pharmaceutical Factory, Inc.) was added thereto to make up the volume to 30 mL. The mixture was stirred for 30 seconds using a vortex mixer, followed by ultrasonication (ASONE) for 60 seconds to prepare a test solution containing phytin with various mineral compositions.
As a positive control, a test solution containing a commercially available phytin (phytin (IP6), TSUNO Food Industrial co., ltd.) was prepared at the same concentration of phytic acid as the other test solutions.
A 100 mg/mL of solution of rat small intestine powder (Clare Japan, Inc.) in the assay buffer was used as an enzyme solution. Inosine monophosphate (Sigma-Aldrich) was diluted with the assay buffer to the concentration of 9 mM to prepare a substrate solution. Enzymatic reaction was performed using a 96 well plate (Thermo Fisher Scientific) in the following manner. […]

[2] = Test Example 4 stability (deliquescence); assay type: physicochemical; parameters: key: “Deliquesced” refers to a change where the sample completely liquefied to become starch syrup-like; “Partially-deliquesced” refers to a change where a part of the sample deliquesced or solidified.; “No change” refers to a no change in state of the sample; conditions: 200 mg, 25° C., humidity 75.3%, 64 hours
Method: Ca(OH)2 (Inoue Calcium Corporation) as a calcium source, Mg(OH)2 (Tomita Pharmaceutical Co., Ltd.) as a magnesium source, KOH (NIPPON SODA CO., LTD.) as a potassium source, NaOH (Tosoh Corporation) as a sodium source were placed in a 50 mL PP tube (IWAKI) at the molar ratios of minerals shown in Table 3. Then a commercially available phytic acid solution (product name: phytic acid (IP6), TSUNO Food Industrial co., ltd.) 0.426 mL (containing 0.296 g of phytic acid) was placed therein. Distilled water (Otsuka Pharmaceutical Factory, Inc.) was added thereto to make up the volume to 30 mL. The mixture was stirred for 30 seconds using a vortex mixer, followed by ultrasonication (ASONE) for 60 seconds. This operation of stirring and ultrasonication was repeated three times in total. Then the mixture was adjusted to pH 4.0±0.2 with hydrochloric acid and pre-frozen at −80° C. The pre-frozen mixture was freeze-dried by using a freeze dryer to provide a completely powdered phytin. The completely powdered phytin was used as a sample.
As positive controls, a sample of phytic acid (powder) prepared following the above procedure without adding any mineral component, and a commercially available phytic acid powder product (product name: Powdered phytic acid, FUSO CHEMICAL CO., LTD.) were used. […]

Q: Which results are given for `O=P(O)(O)O[C@H]1[C@H](OP(=O)(O)O)[C@@H](OP(=O)(O)O)[C@H](OP(=O)(O)O)[C@@H](OP(=O)(O)O)[C@H]1OP(=O)(O)O` [Phytic acid (PA), phytic acid]?
A: enzyme inhibitory activity [1]: around 30%; Deliquescence [2]: Deliquesced; Deliquescence ([2]; listed as phytic acid sample): deliquesced
